Key:
[1] = tested on: Human Intestinal Myofibroblasts (InMyoFib); test: TGFβ1-induced expression of α-SMA protein in human intestinal fibroblasts (ELISA); assay type: cell-based; settings: concentration of 1 μM; TGFβ1 3 ng/ml, 48 hours
Protocol: NTZ (A) or TZ (B) were added to serum-deprived intestinal fibroblasts (InMyoFib) 1 hour before the activation with TGFβ1 (3 ng/ml). After 48 hours of incubation, the expression of α-SMA was measured by ELISA. The obtained values were transformed into percentage inhibition over TGFβ1 control. Data are presented as mean (triplicates)±standard deviation (SD). Statistical analyses were performed by one-way ANOVA followed by Bonferroni post-hoc tests, using Sigma Plot 11.0 software. [*: p<0.05; **: p<0.01; ***: p<0.001 (comparison versus TGFβ1 3 ng/mL group)].
The Human Intestinal Myofibroblasts (InMyoFib) (Lonza) were cultured in Smooth Muscle Cell Basal Medium (SmBM-2™) (Lonza cat # CC-3181) that was supplemented with SmGM™-2 BulletKit™ (Lonza cat # CC-4149). The complete medium contains 5% fetal bovine serum. For the activation experiments with TGFβ1, the inMyoFib were plated at a density of 10×10^3 cells per well in 96-well plates. The next day, cell-culture medium was removed, and cells were washed with PBS (Invitrogen cat #14190). InMyoFib were deprived for 24 hours in serum-free, insulin-free and rhFGF-B-free medium. […]
The level of α-SMA was measured using a Sandwich ELISA. […]

[2] = tested on: rat primary hepatic stellate cells (rHSC); test: TGFβ1-induced expression of α-SMA protein in rat HSC (ELISA); assay type: cell-based; settings: TGFβ1 3 ng/ml, 48 hours
Protocol: NTZ (A) or TZ (B) were added to serum-deprived rat HSC (rHSC) 1 hour before the activation with TGFβ1 (3 ng/ml). After 48 hours of incubation, the expression of α-SMA was measured by ELISA. The obtained values were transformed into percentage inhibition over TGFβ1 control. Data are presented as mean (triplicates)±standard deviation (SD). Statistical analyses were performed by one-way ANOVA followed by Bonferroni post-hoc tests, using Sigma Plot 11.0 software. [*: p<0.05; **: p<0.01; ***: p<0.001 (comparison versus TGFβ1 3 ng/mL group)]. The rat primary hepatic stellate cells (rHSC) (Innoprot) were cultured in STeCM medium (ScienCell cat #5301) that was supplemented with 2% fetal bovine serum (FBS, ScienCell cat #0010), 1% penicillin/streptomycin (ScienCell cat #0503) and stellate cell growth supplement (SteCGS; ScienCell cat #5352). For the activation experiments with TGFβ1, the rHSC were plated at a density of 10×10^3 cells per well in 96-well plates. The next day, cell culture medium was removed, and cells were washed with PBS (Invitrogen cat #14190). rHSC were deprived for 24 hours in serum-free and SteCGS-free medium. […] The level of α-SMA was measured using a Sandwich ELISA. […]

O=C(Nc1ncc([N+](=O)[O-])s1)c1ccccc1O [TZ, 2-hydroxy-N-(5-nitro-2-thiazolyl)benzamide]
antifibrotic effects (α-SMA) in human Intestinal myofibroblasts [1]: significant antifibrotic effects
α-SMA levels in TGFβ-activated HSC derived from rat [2]: reduced

From patent US10905680B2, “Methods of treatment for cholestatic and fibrotic diseases” (Genfit, priority 2016, dated 2021)
